Laboratory results taken from the NIST ThermoML archive (doi:10.1021/je0498560).

Test: xn = mol fraction of the nth substance listed
Details: Liquid

C[N+](=O)[O-] [nitromethane] + O=C=O
Details	molar volume [m3/mol]
298 K, x2 = 0.12	4.93e-05
298 K, x2 = 0.238	4.83e-05
298 K, x2 = 0.346	4.76e-05
298 K, x2 = 0.457	4.74e-05
298 K, x2 = 0.552	4.74e-05
298 K, x2 = 0.678	4.71e-05
298 K, x2 = 0.747	4.77e-05
298 K, x2 = 0.81	4.78e-05
298 K, x2 = 0.855	4.87e-05
298 K, x2 = 0.876	4.91e-05
313 K, x2 = 0.048	5.88e-05
313 K, x2 = 0.119	5.71e-05
313 K, x2 = 0.183	5.56e-05
313 K, x2 = 0.254	5.51e-05
313 K, x2 = 0.32	5.45e-05
313 K, x2 = 0.385	5.37e-05
313 K, x2 = 0.479	5.32e-05
313 K, x2 = 0.546	5.23e-05
313 K, x2 = 0.627	5.09e-05
313 K, x2 = 0.727	4.99e-05
313 K, x2 = 0.791	5.08e-05

C1CCOC1 [tetrahydrofuran] + O=C=O
Details	molar volume [m3/mol]
298 K, x2 = 0.132	7.08e-05
298 K, x2 = 0.228	6.55e-05
298 K, x2 = 0.333	6.46e-05
298 K, x2 = 0.451	6.2e-05
298 K, x2 = 0.518	6.08e-05
298 K, x2 = 0.624	5.86e-05
298 K, x2 = 0.736	5.64e-05
298 K, x2 = 0.83	5.49e-05
298 K, x2 = 0.899	5.43e-05
313 K, x2 = 0.098	7.75e-05
313 K, x2 = 0.313	7.09e-05
313 K, x2 = 0.398	6.82e-05
313 K, x2 = 0.489	6.53e-05
313 K, x2 = 0.576	6.29e-05
313 K, x2 = 0.655	6.23e-05
313 K, x2 = 0.733	6.02e-05
313 K, x2 = 0.832	5.72e-05
313 K, x2 = 0.89	6.02e-05
333 K, x2 = 0.165	7.45e-05
333 K, x2 = 0.26	7.34e-05
333 K, x2 = 0.404	6.87e-05
333 K, x2 = 0.539	6.6e-05
333 K, x2 = 0.696	5.84e-05
333 K, x2 = 0.808	6.04e-05
333 K, x2 = 0.85	6.29e-05
333 K, x2 = 0.893	7.05e-05

FC(F)(F)C(F)(F)C(F)(F)C(F)(F)C(F)(F)C(F)(F)F [perfluorohexane] + O=C=O
313 K
Details	molar volume [m3/mol]
x2 = 0.146	0.0001867
x2 = 0.163	0.000187
x2 = 0.262	0.0001742
x2 = 0.27	0.0001732
x2 = 0.339	0.0001655
x2 = 0.424	0.0001511
x2 = 0.474	0.0001448
x2 = 0.547	0.0001324
x2 = 0.615	0.0001235
x2 = 0.665	0.0001165
x2 = 0.721	0.0001062
x2 = 0.765	9.7e-05
x2 = 0.776	9.49e-05
x2 = 0.811	9.03e-05
x2 = 0.836	9.17e-05

Cc1ccccc1 [toluene] + O=C=O
323 K
Details	molar volume [m3/mol]
x2 = 0.091	0.0001014
x2 = 0.175	9.72e-05
x2 = 0.26	9.21e-05
x2 = 0.335	8.76e-05
x2 = 0.408	8.37e-05
x2 = 0.48	8.02e-05
x2 = 0.524	7.82e-05
x2 = 0.583	7.22e-05
x2 = 0.644	6.72e-05
x2 = 0.715	6.46e-05
x2 = 0.764	6.32e-05
x2 = 0.821	6.23e-05
x2 = 0.865	6.26e-05
x2 = 0.883	6.35e-05

CC(C)O [propan-2-ol] + O=C=O
313 K
Details	molar volume [m3/mol]
x2 = 0.018	7.97e-05
x2 = 0.065	7.88e-05
x2 = 0.133	7.62e-05
x2 = 0.21	7.45e-05
x2 = 0.3	7.17e-05
x2 = 0.401	6.85e-05
x2 = 0.51	6.4e-05
x2 = 0.639	6.06e-05
x2 = 0.725	5.99e-05
x2 = 0.788	6.01e-05

CC(C)=O [acetone] + O=C=O
323 K
Details	molar volume [m3/mol]
x2 = 0.056	7.37e-05
x2 = 0.14	7.18e-05
x2 = 0.251	6.75e-05
x2 = 0.335	6.67e-05
x2 = 0.432	6.42e-05
x2 = 0.53	6.23e-05
x2 = 0.603	6.1e-05
x2 = 0.648	6.01e-05
x2 = 0.695	5.71e-05
x2 = 0.73	5.66e-05
x2 = 0.76	5.74e-05
x2 = 0.787	5.81e-05

OCC(F)(F)F [2,2,2-trifluoroethanol] + O=C=O
Details	molar volume [m3/mol]
298 K, x2 = 0.132	6.39e-05
298 K, x2 = 0.225	6.3e-05
298 K, x2 = 0.358	5.95e-05
298 K, x2 = 0.48	5.81e-05
298 K, x2 = 0.599	5.71e-05
298 K, x2 = 0.704	5.51e-05
298 K, x2 = 0.749	5.51e-05
298 K, x2 = 0.795	5.43e-05
298 K, x2 = 0.842	5.49e-05
298 K, x2 = 0.888	5.48e-05
298 K, x2 = 0.927	5.5e-05
313 K, x2 = 0.16	6.1e-05
313 K, x2 = 0.23	6.13e-05
313 K, x2 = 0.337	6.06e-05
313 K, x2 = 0.424	5.94e-05
313 K, x2 = 0.517	5.84e-05
313 K, x2 = 0.628	5.51e-05
313 K, x2 = 0.715	5.3e-05
313 K, x2 = 0.773	5.34e-05
313 K, x2 = 0.849	5.65e-05
313 K, x2 = 0.901	5.98e-05

CN1CCCC1=O [N-methylpyrrolidone] + O=C=O
313 K
Details	molar volume [m3/mol]
x2 = 0.104	8.91e-05
x2 = 0.19	8.48e-05
x2 = 0.242	8.26e-05
x2 = 0.311	7.9e-05
x2 = 0.374	7.57e-05
x2 = 0.437	7.32e-05
x2 = 0.499	6.98e-05
x2 = 0.565	6.66e-05
x2 = 0.629	6.23e-05
x2 = 0.725	5.67e-05
x2 = 0.816	5.34e-05

CC#N [acetonitrile] + O=C=O
313 K
Details	molar volume [m3/mol]
x2 = 0.044	5.19e-05
x2 = 0.073	5.25e-05
x2 = 0.093	5.33e-05
x2 = 0.168	5.24e-05
x2 = 0.241	5.11e-05
x2 = 0.312	5.1e-05
x2 = 0.381	5.18e-05
x2 = 0.449	5.07e-05
x2 = 0.523	4.98e-05
x2 = 0.598	4.96e-05
x2 = 0.688	4.9e-05
x2 = 0.77	4.87e-05
x2 = 0.834	5.08e-05

ClCCl [dichloromethane] + O=C=O
313 K
Details	molar volume [m3/mol]
x2 = 0.044	6.51e-05
x2 = 0.114	6.32e-05
x2 = 0.188	6.24e-05
x2 = 0.269	6.13e-05
x2 = 0.444	5.87e-05
x2 = 0.533	5.74e-05
x2 = 0.644	5.64e-05
x2 = 0.738	5.32e-05
x2 = 0.83	5.42e-05
x2 = 0.859	5.82e-05
